# Measured values: patent US20070275100A1, “Use of gaseous nitric oxide as an anti-cancer agent” (priority 1998, published 2007)
# Values joined by “and” are separate entries in the source; they are usually repeats but may differ in a detail not shown here. Identical values can stand only once.
# Columns and labels:
# [1] = system: A549-epithelial lung carcinoma cells; experiment: MTS proliferation assay, A549 cells under continuous gNO exposure (Example 1); type: cell-based, human; details: for Corrected Average: blank subtracted; for survivability: 24 hours continuous exposure, compared to air (control)
# Experimental: (gNO) 200 ppm and 350 ppm compared to air (control) on the survival of a representative line of cancer cells. Cancer cell lines (A549-epithelial lung carcinoma cells and H460-epithelial metastatic; large cell lung cancer cells) were prepared in F12 medium and suspended in six 96-well plates (3 treatment and 3 controls). […] The plates then were removed and cell viability assessed by an MTS proliferation assay.
# When exposed to 350 ppm of gNO, however, cancer cell survival rates decrease dramatically.
# Staphylococcus aureus = experiment: High dose gNO on Staphylococcus aureus plated on blood agar (Example 2); type: cell-based; details: 25,000 ppm gNO
# Description: The purpose of this example is to observe the possibility of a novel bactericidal high dose (25,000 ppm) effect of gaseous nitric oxide (gNO) on an ATCC strain of Staphylococcus aureus plated on a blood agar media and determine a time effect of this dosage.
# A closed environment treatment chamber was used (see, “A direct nitric oxide gas delivery system for bacterial and mammalian cell cultures,” A. Ghaffari, D. H. Neil, A. Ardakani, J. Road, A. Ghahary, C. C. Miller. Nitric Oxide 12(3):129-140, 2005, herein incorporated by reference in its entirety). The following steps were performed: • 1. Calibrated the AeroNOx analyzer as per standard procedure. • 2. Calibrated the closed environment treatment chamber as per standard procedure. • 3. In a 50 mL tube, known Staphylococcus aureus bacteria in 10 mL Nutrient Broth was grown overnight or for about 12 hours in a shaker incubator. • 4. Measured optical density of grown Staphylococcus aureus using a spectrophotometer set at 600 nm. Used original nutrient broth as a blank. O.D. should be 1.0±10%. • 5. Turned on closed environment treatment chamber. • 6. Labeled three plates: Air, NO+1 minute, NO+3 minutes. • 7. Immersed a sterile cotton swab into the bacterial mixture in the 50 mL tube and shaked off excess liquid. • 8. Swiped one plate entirely in two directions with the swab. • 9. Repeated steps 7-8 using the cotton swab for the remaining […] plates. • 10. Using clean technique, utilized the device to administer either air or 25,000 ppm gNO at a fixed distance and flow towards the inoculated agar media. The agar plate was enclosed in an isolated plastic box with lid. A micropipette through which the gas flowed was affixed to the box lid. The box lid was sealed through the use of plastic wrap. The micropipette was in fluid communication with the gaseous mixing manifold in order to deliver the specified concentrations. • 11. Placed the three treated plates into the laboratory incubator. • 12. Removed plates after 8 hours and placed in a 37° C. incubator for 12-16 hours. • 13. After incubation, recorded results with digital pictures. • 14. Sealed plates with paraffin and refrigerated for storage.
# [2] = system: normal human endothelial lung vascular cells (NHVE); experiment: Viability under 25,000 ppm gNO (Example 5), NHVE; type: cell-based
# Experimental: (§1) After 24 hours, the A549, NCI-H23, NCI-H460, HTB-58, H2170 and H441 cells were treated with 25,000 ppm gNO or air (control) for 1 minute, 3 minutes, 6 minutes, 9 minutes, 10 minutes, 20 minutes, and 30 minutes. Immediately following treatment, the viability of the cells was determined using a colorimetric MTS (3-(4,5-dimethylthiazol-2-yl)-5-(3-carboxymethoxyphenyl)-2-(4-sulfophenyl)-2H-tetrazolium, inner salt) cell proliferation assay (commercially available as the CellTiter 960 Aqueous One Solution Cell Proliferation Assay (MTS) from Promega, Madison, Wis., USA) according to the manufacturer's protocol. Briefly, […] of MTS solution was added to each well and the cells were incubated for 2 hours at 37° C. Absorbance was measured at 490 nm for each well using a micro-plate reader (commercially available from Dynex Technologies, Chantilly, Va., USA). The relative percentage of cell survival (viability) was calculated by dividing the absorbance of treated cells by that of control cells for each experimental time point.
# (§2) The purpose of this example is to illustrate the effects on normal human cell lines compared to the effects on cancerous cell lines of high-dosage gNO. The above study was repeated. […]
# [3] = system: normal human fibroblast cells (NHLF); experiment: Viability under 25,000 ppm gNO (Example 5), NHLF; type: cell-based
# Experimental: as §1, §2
# [4] = 200 ppm NO, 1 hour, F12 medium, listed as NO
# [5] = 200 ppm NO, 1 hour, HBSS medium
# [6] = 200 ppm NO, 2.5 hours, F12 medium
# [7] = 200 ppm NO, 2.5 hours, F12 medium, listed as NO
# [8] = 200 ppm NO, 2.5 hours, HBSS medium
# [9] = 200 ppm NO, 3.5 hours, F12 medium
# [10] = 200 ppm NO, 3.5 hours, F12 medium, listed as NO
# [11] = 200 ppm NO, 3.5 hours, HBSS medium
# [12] = 350 ppm NO, 2 hours, F12 medium
# [13] = 350 ppm NO, 2 hours, F12 medium, listed as NO
structure (smiles),measurement,setting,value
"[N]=O [gNO, nitric oxide]",Average,"[1]; 200 ppm NO, 1 hour, F12 medium",0.852
same,Survival,"[1]; 200 ppm NO, 1 hour, F12 medium",up to 92%
same,Corrected Average,"[1]; 200 ppm NO, 1 hour, F12 medium",0.621
same,"MTS assay reading, individual wells",[1]; [4],0.842 and 0.955 and 0.793 and 0.818 and 0.828 and 0.78 and 0.805 and 0.936 and 0.959 and 0.91 and 0.827 and 0.8 and 0.795 and 0.759 and 0.945 and 0.886
same,Survival,[1]; [4],92%
same,Average,[1]; [5],0.06
same,"MTS assay reading, individual wells",[1]; [5],0.062 (2×) and 0.058 (2×) and 0.057 (2×) and 0.056 (2×) and 0.06 (3×) and 0.067 (2×) and 0.059 and 0.055
same,Survival,[1]; [5],0%
same,Corrected Average,[1]; [5],0
same,Average,[1]; [6],1.276
same,Survival,[1]; [6],up to 90%
same,Corrected Average,[1]; [6],0.918
same,"MTS assay reading, individual wells",[1]; [7],1.261 and 1.178 and 1.33 and 1.422 and 1.454 and 1.458 and 1.354 and 1.105 and 1.348 and 1.082 and 1.329 and 1.237 and 1.272 and 0.995 and 1.284 and 1.299
same,Survival,[1]; [7],90%
same,Average,[1]; [8],0.06
same,"MTS assay reading, individual wells",[1]; [8],0.063 and 0.059 (3×) and 0.058 (2×) and 0.061 and 0.06 (2×) and 0.069 (2×) and 0.057 (2×) and 0.056 and 0.062
same,Survival,[1]; [8],0%
same,Corrected Average,[1]; [8],0
same,Average,[1]; [9],1.529
same,Survival,[1]; [9],up to 87%
same,Corrected Average,[1]; [9],1.059
same,"MTS assay reading, individual wells",[1]; [10],1.587 and 1.525 and 1.665 and 1.444 and 1.642 and 1.332 and 1.639 and 1.551 and 1.567 and 1.863 and 1.335 and 1.325 and 1.575 and 1.227 and 1.561 and 1.625
same,Survival,[1]; [10],87%
same,Average,[1]; [11],0.061
same,"MTS assay reading, individual wells",[1]; [11],0.063 (2×) and 0.059 (3×) and 0.058 (3×) and 0.061 (2×) and 0.06 and 0.069 and 0.057 and 0.056 and 0.07
same,Survival,[1]; [11],0%
same,Corrected Average,[1]; [11],0
same,survivability,[1]; 200 ppm gNO,greater than 90%
same,Average,[1]; [12],0.110
same,Survival,[1]; [12],about 2%
same,Corrected Average,[1]; [12],0.009
same,"MTS assay reading, individual wells",[1]; [13],0.104 and 0.115 and 0.106 (2×) and 0.110 and 0.116 and 0.119
same,Survival,[1]; [13],1%
same,survivability,[1]; 350 ppm gNO,1%
same,effect on the growth of S. aureus,Staphylococcus aureus; 1 minute,profound inhibitory effect
same,plate appearance after incubation (FIG. 4),Staphylococcus aureus; 1 minute of exposure,the plate still shows signs of the S. aureus
same,effect on the growth of S. aureus,Staphylococcus aureus; 3 minutes,possible cidal effect
same,plate appearance after incubation (FIG. 5),Staphylococcus aureus; 3 minutes of exposure,the plate shows no signs of the S. aureus
same,killing of normal endothelial cells,[2]; 6 minutes,rapidly killed
same,viability,"[2]; after 6 minutes, FIG. 8 B",less than 10%
same,viability,"[3]; after 6 minutes, FIG. 8 C",about 30%
same,viability of normal lung fibroblasts,[3]; after 15 minutes of exposure,30%
